# Target: T1, human orexin type 2 receptor (Homo sapiens, UniProt O43614)
# T1 construct: expressed in transfected cells
# T1 sequence (O43614 1-444): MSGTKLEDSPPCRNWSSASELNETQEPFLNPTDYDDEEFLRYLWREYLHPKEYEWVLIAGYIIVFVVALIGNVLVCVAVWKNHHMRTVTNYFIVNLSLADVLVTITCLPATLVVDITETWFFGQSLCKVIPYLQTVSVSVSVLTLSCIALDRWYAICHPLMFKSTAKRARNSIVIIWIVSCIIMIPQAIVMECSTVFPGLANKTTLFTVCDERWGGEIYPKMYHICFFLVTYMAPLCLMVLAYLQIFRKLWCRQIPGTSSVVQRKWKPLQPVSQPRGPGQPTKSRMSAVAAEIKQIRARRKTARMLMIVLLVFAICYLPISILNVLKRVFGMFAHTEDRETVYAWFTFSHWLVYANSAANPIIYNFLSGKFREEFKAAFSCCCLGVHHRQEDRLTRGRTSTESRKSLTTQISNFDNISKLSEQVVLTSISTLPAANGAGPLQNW
# Experiment: Measurement of orexin type 2 receptor agonist activity (calcium fluorescence, Fluo-4 AM, FDSS) in CHO cells forcibly expressing human OX2 receptor
# Format: cell-based
# Conditions: test compound 3 μM, DMSO = 0%, orexin A (human) 10 nM = 100%
# Outline: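 CHO-dhfr cells stably expressing human OX2 receptor, loaded with Fluo-4 AM plus probenecid for 30 min at 37 °C, then 30 min at room temperature. Calcium fluorescence read for about 2 min 40 s after compound addition. Activity (%) scaled between DMSO (0%) and 10 nM human orexin A (100%).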
row,SMILES,"0X2R agonist activity (3 μM, %) [%]"
1,"CC1OCC2CCC(NS(C)(=O)=O)C(Cc3cccc(-c4cccc(F)c4)c3)N2C1=O (racemic) [Example 165, rac-N-{(3R,6S,7S,9aR)-6-[(3′-fluoro[1,1′-biphenyl]-3-yl)methyl-3-methyl-4-oxooctahydropyrido[2,1-c][1,4]oxazin-7-yl}methanesulfonamide]",97
2,CCn1c(C)nc2c(c1=O)C(Cc1cccc(-c3cc(F)cc(F)c3)c1)C(NS(C)(=O)=O)CC2 (racemic) [Example 75],92
3,"CC(C)c1nn(C)c2c(c1=O)[C@@H](Cc1cccc(-c3ccccc3)c1)[C@@H](NS(C)(=O)=O)CC2 (relative stereo) [Example 161, rel-N-[(5R,6S)-5-[([1,1′-biphenyl]-3-yl)methyl]-1-methyl-4-oxo-3-(propan-2-yl)-1,4,5,6,7,8-hexahydrocinnolin-6-yl]methanesulfonamide]",101
4,"CCS(=O)(=O)N[C@H]1CCc2ncn(C(C)C)c(=O)c2[C@H]1Cc1cccc(-c2cc(F)cc(F)c2)c1 [Example 177, N-[(5R,6S)-5-[(3′,5′-difluoro[1,1′-biphenyl]-3-yl)methyl]-4-oxo-3-(propan-2-yl)-3,4,5,6,7,8-hexahydroquinazolin-6-yl]ethanesulfonamide]",95
5,"CC(C)n1cnc2c(c1=O)C(Cc1cccc(-c3ccccc3)c1)C(NS(=O)(=O)C1(F)CC1)CC2 (stereo not drawn) [Example 185, rel-N-{5-[([1,1′-biphenyl]-3-yl)methyl]-4-oxo-3-(propan-2-yl)-3,4,5,6,7,8-hexahydroquinazolin-6-yl}-1-fluorocyclopropane-1-sulfonamide]",95
6,"CC(C)n1cnc2c(c1=O)[C@@H](Cc1cccc(-c3cc(F)cc(F)c3)c1)[C@@H](NS(=O)(=O)C1(F)CC1)CC2 (relative stereo) [Example 187, rel-N-[(5R,6S)-5-[(3′,5′-difluoro[1,1′-biphenyl]-3-yl)methyl]-4-oxo-3-(propan-2-yl)-3,4,5,6,7,8-hexahydroquinazolin-6-yl]-1-fluorocyclopropane-1-sulfonamide]",94
7,"CS(=O)(=O)N[C@H]1CCc2ncn(CC3CC3)c(=O)c2[C@H]1Cc1cccc(-c2ccccc2)c1 (racemic) [Example 103, rac-N-[(5R,6S)-5-[([1,1′-biphenyl]-3-yl)methyl]-3-(cyclopropylmethyl)-4-oxo-3,4,5,6,7,8-hexahydroquinazolin-6-yl]methanesulfonamide]",79
8,"CC(C)n1cnc2c(c1=O)[C@@H](Cc1cccc(-c3ccn(C)n3)c1)[C@@H](NS(C)(=O)=O)CC2 (racemic) [Example 117, rac-N-[(5R,6S)-5-{[3-(1-methyl-1H-pyrazol-3-yl)phenyl]-methyl}-4-oxo-3-(propan-2-yl)-3,4,5,6,7,8-hexahydroquinazolin-6-yl]methanesulfonamide]",97
9,"CC(C)n1cnc2c(c1=O)C(Cc1cccc(-c3cccc(F)c3)c1)C(NS(C)(=O)=O)CC2 [Example 89, rel-N-[(5R,6S)-5-[(3′-fluoro[1,1′-biphenyl]-3-yl)methyl]-4-oxo-3-(propan-2-yl)-3,4,5,6,7,8-hexahydroisoquinazolin-6-yl]methanesulfonamide]",101
10,"CC(C)c1nn(C)c2c(c1=O)[C@@H](Cc1csc(-c3ccccc3)n1)[C@@H](NS(C)(=O)=O)C[C@H]2F (racemic) [Example 207, rac-N-[(5R,6S,8R)-8-fluoro-1-methyl-4-oxo-5-[(2-phenyl-1,3-thiazol-4-yl)methyl]-3-(propan-2-yl)-1,4,5,6,7,8-hexahydrocinnolin-6-yl]methanesulfonamide]",93
11,"CC(C)n1cnc2c(c1=O)C(Cc1csc(-c3ccccc3)n1)C(NS(=O)(=O)C1(F)CC1)CC2 (stereo not drawn) [Example 194, rel-1-fluoro-N-{4-oxo-5-[(2-phenyl-1,3-thiazol-4-yl)methyl]-3-(propan-2-yl)-3,4,5,6,7,8-hexahydroquinazolin-6-yl}cyclopropane-1-sulfonamide]",91
12,"CC(C)n1cnc2c(c1=O)[C@@H](Cc1ccc(F)c(-c3ccccc3)c1)[C@@H](NS(C)(=O)=O)CC2 (relative stereo) [Example 150, rel-N-[(5R,6S)-5-[(6-fluoro[1,1′-biphenyl]-3-yl)methyl]-4-oxo-3-(propan-2-yl)-3,4,5,6,7,8-hexahydroquinazolin-6-yl]methanesulfonamide]",98
13,"CCn1ccc2c(c1=O)[C@@H](Cc1cccc(-c3cccn(C)c3=O)c1)[C@@H](NS(C)(=O)=O)CC2 (racemic) [Example 129, rac-N-[(7S,8R)-2-ethyl-8-{[3-(1-methyl-2-oxo-1,2-dihydropyridin-3-yl)phenyl]methyl}-1-oxo-1,2,5,6,7,8-hexahydroisoquinolin-7-yl]methanesulfonamide]",98
14,"CCc1ccc(C[C@H]2[C@@H](NS(C)(=O)=O)CCc3ccc(C)c(=O)n32)cc1 (racemic) [Example 216, rac-N-{(3S,4S)-4-[(4-ethylphenyl)methyl]-7-methyl-6-oxo-1,3,4,6-tetrahydro-2H-quinolizin-3-yl}methanesulfonamide]",76
15,"CC(C)n1cnc2c(c1=O)[C@@H](Cc1cccc(-c3cc(F)cc(F)c3)c1F)[C@@H](NS(=O)(=O)CF)CC2 [Example 199, 1-fluoro-N-{(5R,6S)-4-oxo-3-(propan-2-yl)-5-[(2,3′,5′-trifluoro[1,1′-biphenyl]-3-yl)methyl]-3,4,5,6,7,8-hexahydroquinazolin-6-yl}methanesulfonamide]",90
16,"CS(=O)(=O)N[C@H]1CCc2ccc(C#N)c(=O)n2[C@H]1Cc1cccc(-c2ccccc2)c1 (racemic) [Example 28, rac-N-{(3S,4S)-4-[([1,1′-biphenyl]-3-yl)methyl]-7-cyano-6-oxo-1,3,4,6-tetrahydro-2H-quinolizin-3-yl}methanesulfonamide]",97
17,"CC(C)n1cnc2c(c1=O)[C@@H](Cc1cccc(-c3cccc(F)c3F)c1F)[C@@H](NS(=O)(=O)C1(F)CC1)CC2 [Example 184, 1-fluoro-N-{(5R,6S)-4-oxo-3-(propan-2-yl)-5-[(2,2′,3′-trifluoro[1,1′-biphenyl]-3-yl)methyl]-3,4,5,6,7,8-hexahydroquinazolin-6-yl}cyclopropane-1-sulfonamide]",98
18,"CC(C)n1cnc2c(c1=O)[C@@H](Cc1cccc(-c3cc(F)cc(F)c3)c1F)[C@@H](NS(=O)(=O)C1(F)CC1)CC2 [Example 182, 1-fluoro-N-{(5R,6S)-4-oxo-3-(propan-2-yl)-5-[(2,3′,5′-trifluoro[1,1′-biphenyl]-3-yl)methyl]-3,4,5,6,7,8-hexahydroquinazolin-6-yl}cyclopropane-1-sulfonamide]",101
19,"CC(C)n1cnc2c(c1=O)[C@@H](Cc1cccc(-c3ccccc3F)c1F)[C@@H](NS(C)(=O)=O)CC2 (relative stereo) [Example 149, rel-N-[(5R,6S)-5-[(2,2′-difluoro[1,1′-biphenyl]-3-yl)methyl]-4-oxo-3-(propan-2-yl)-3,4,5,6,7,8-hexahydroquinazolin-6-yl]methanesulfonamide]",105
20,"CCc1cccc(C[C@H]2[C@@H](NS(C)(=O)=O)CCc3ccc(CC)c(=O)n32)c1 (racemic) [Example 135, rac-N-{(3S,4S)-7-ethyl-4-[(3-ethylphenyl)methyl]-6-oxo-1,3,4,6-tetrahydro-2H-quinolizin-3-yl}methanesulfonamide]",90
21,"Cc1cccc(-c2cccc(C[C@@H]3c4c(ncn(C(C)C)c4=O)CC[C@@H]3NS(C)(=O)=O)c2)c1 (racemic) [Example 106, rac-N-[(5R,6S)-5-[(3′-methyl[1,1′-biphenyl]-3-yl)methyl]-4-oxo-3-(propan-2-yl)-3,4,5,6,7,8-hexahydroquinazolin-6-yl]methanesulfonamide]",103
22,"Cc1ccc2n(c1=O)C(Cc1ccc(-c3ccccc3)cc1)C(NS(C)(=O)=O)CC2 (racemic) [Example 214, rac-N-{(3S,4S)-4-[([1,1′-biphenyl]-4-yl)methyl]-7-methyl-6-oxo-1,3,4,6-tetrahydro-2H-quinolizin-yl}methanesulfonamide]",52
23,"Cc1ccc2n(c1=O)C(Cc1cccc(-c3cccc(F)c3)c1)C(NC(=O)[C@@H]1CCCO1)CC2 (stereo in doubt) [Example 44, (2S)-N-{(3S*,4S*)-4-[(3′-fluoro[1,1′-biphenyl]-3-yl)methyl]-7-methyl-6-oxo-1,3,4,6-tetrahydro-2H-quinolizin-3-yl}oxolane-2-carboxamide]",96
24,"CC(C)n1cnc2c(c1=O)C(Cc1cccc(-c3ccccc3)c1)C(NS(C)(=O)=O)C(F)C2 (racemic) [Example 173, rac-N-[(5R,6R)-5-[([1,1′-biphenyl]-3-yl)methyl]-7-fluoro-4-oxo-3-(propan-2-yl)-3,4,5,6,7,8-hexahydroquinazolin-6-yl]methanesulfonamide]",91
25,"CCn1ccc2c(c1=O)[C@@H](Cc1cccc(-c3ccccc3)c1)[C@@H](NS(C)(=O)=O)CC2 (racemic) [Example 47, rac-N-{(7S,8R)-8-[([1,1′-biphenyl]-3-yl)methyl]-2-ethyl-1-oxo-1,2,5,6,7,8-hexahydroisoquinolin-7-yl}methanesulfonamide]",96

# — patent publication US12071434B2, “Heterocyclic compound” (Takeda Pharmaceutical Company Limited, priority 2018, dated 2024)
